# Measurements as given in US9145351B2, “Azole derivatives, methods for producing the same, intermediate thereof, agro-horticultural agents” (KUREHA CORPORATION, priority 2009, dated 2015).
# Experiments:
# Ustilago nuda = assay: Plate medium fungicidal assay, barley loose smut U.n (Experimental Example 5); format: cell-based
# Procedure: In this Experimental Example, the fungicidal effects of the inventive compounds on various phytopathogenic fungi for plants and hazardous microorganism for industrial materials were examined by the methods described below. Each inventive compound was dissolved in 2 ml of dimethyl sulfoxide. 0.6 ml of this solution was added to 60 nil of a PDA medium (potato dextrose agar medium) at about 60 degrees C., which was mixed thoroughly in a 100-ml conical flask, and poured into a dish, where it was solidified, thereby obtaining a plate medium containing the inventive compound at 50 mg/L and 5 mg/L. On the other hand, a subject microorganism previously cultured on a plate medium was cut out using a cork borer whose diameter was 4 mm, and inoculated to the test compound-containing plate medium described above. […] The growth degree of the microorganism on the test compound-containing plate medium thus observed was compared with the growth degree of the microorganism in the untreated group, and % mycelial growth inhibition was calculated by the following equation. R=100(dc−dt)/dc wherein R=% mycelial extension inhibition, dc=flora diameter in untreated plate, dt=flora diameter in treated plate. The results obtained as described above were evaluated as one of the 5 grades according to the following criteria. […] Barley loose smut (Ustilago nuda) U.n
# Tyromyces palustris = assay: Plate medium assay, wood denaturing microorganism Oouzuratake (Experimental Example 5); format: cell-based; conditions: treatment at 50 mg/l, PDA plate medium; read-out: growth inhibition grade
# Procedure: (§1) In this Experimental Example, the fungicidal effects of the inventive compounds on various phytopathogenic fungi for plants and hazardous microorganism for industrial materials were examined by the methods described below. Each inventive compound was dissolved in 2 ml of dimethyl sulfoxide. 0.6 ml of this solution was added to 60 nil of a PDA medium (potato dextrose agar medium) at about 60 degrees C., which was mixed thoroughly in a 100-ml conical flask, and poured into a dish, where it was solidified, thereby obtaining a plate medium containing the inventive compound at 50 mg/L and 5 mg/L. On the other hand, a subject microorganism previously cultured on a plate medium was cut out using a cork borer whose diameter was 4 mm, and inoculated to the test compound-containing plate medium described above. […] The growth degree of the microorganism on the test compound-containing plate medium thus observed was compared with the growth degree of the microorganism in the untreated group, and % mycelial growth inhibition was calculated by the following equation. R=100(dc-dt)/dc wherein R=% mycelial extension inhibition, dc=flora diameter in untreated plate, dt=flora diameter in treated plate. The results obtained as described above were evaluated as one of the 5 grades according to the following criteria.
# Fusarium graminearum [1] = assay: microbe, parasite or virus in culture; format: cell-based
# Fusarium oxysporum = assay: Plate medium fungicidal assay, cucumber fusarium wilt F.c (Experimental Example 5); format: cell-based
# Procedure: as §1, with “R=100(dc−dt)/dc” for “R=100(dc-dt)/dc”, “criteria. […] Cucumber fusarium wilt (Fusarium oxysporum) F.c” for “criteria.”
# Fusarium graminearum [2] = assay: whole plant or invertebrate; format: in vivo; conditions: in Triticum aestivum, 168 h, read-out: Protective value
# Curvularia sp. = assay: Plate medium assay, industrial material deteriorating microorganism, Curvularia (Experimental Example 5); format: cell-based; conditions: treatment at 50 mg/l, PDA plate medium, read-out: growth inhibition grade
# Procedure: as §1
# Alternaria alternata = assay: Plate medium fungicidal assay, Alternaria blotch A.m (Experimental Example 5); format: cell-based
# Procedure: as §1, with “R=100(dc−dt)/dc” for “R=100(dc-dt)/dc”, “criteria. […] Alternaria blotch (Alternaria alternata) A.m” for “criteria.”
# Botritis cinerea = assay: Plate medium fungicidal assay, gray mold B.c (Experimental Example 5); format: cell-based
# Procedure: as §1, with “R=100(dc−dt)/dc” for “R=100(dc-dt)/dc”, “criteria. […] Gray mold (Botritis cinerea) B.c” for “criteria.”
# [3] = Fusarium graminearum, read-out: Growth inhibition grade, F.g
# [4] = plate medium containing compound at 5 mg/L
# [5] = plate medium containing compound at 50 mg/L
SMILES,"Growth inhibition grade, U.n (Ustilago nuda; [4])","Growth inhibition grade, U.n (Ustilago nuda; [5])","Growth inhibition grade, F.g (Fusarium graminearum [1]; [4])","Growth inhibition grade, F.g (Fusarium graminearum [1]; [5])","Growth inhibition grade, F.c (Fusarium oxysporum; [4])","Growth inhibition grade, F.c (Fusarium oxysporum; [5])","Growth inhibition grade, A.m (Alternaria alternata; [4])","Growth inhibition grade, A.m (Alternaria alternata; [5])","Growth inhibition grade, B.c (Botritis cinerea; [4])","Growth inhibition grade, B.c (Botritis cinerea; [5])",further results
"CC[C@]1(CCl)CC[C@@H](Cc2ccc(Cl)cc2)[C@]1(O)Cn1cncn1 (racemic) [Compound I-36, (1RS,2SR,5SR)-5-(4-chlorobenzyl)-2-chloromethyl-2-ethyl-1-(1H-1,2,4-triazol-1-ylmethyl)cyclopentanol]",–,–,–,–,–,–,–,–,–,–,"inhibition at 5 µg/mL (Ustilago nuda; Ustilago nuda, plate medium containing compound at 5 mg/L, read-out: Growth inhibition grade, U.n): 60 to 80%; inhibition at 50 µg/mL (Ustilago nuda; Ustilago nuda, plate medium containing compound at 50 mg/L, read-out: Growth inhibition grade, U.n): > 80%; inhibition at 50 µg/mL (Tyromyces palustris): 60 to 80%; inhibition at 5 µg/mL (Fusarium graminearum [1]; [3]): > 80%; inhibition at 50 µg/mL (Fusarium graminearum [1]; [3]): > 80%; inhibition at 5 µg/mL (Fusarium oxysporum; Fusarium oxysporum, plate medium containing compound at 5 mg/L, read-out: Growth inhibition grade, F.c): > 80%; inhibition at 50 µg/mL (Fusarium oxysporum; Fusarium oxysporum, plate medium containing compound at 50 mg/L, read-out: Growth inhibition grade, F.c): > 80%; pest or weed control at 100 µg/mL (Fusarium graminearum [2]): ≥ 80%; pest or weed control at 500 µg/mL (Fusarium graminearum [2]): ≥ 90%; inhibition at 50 µg/mL (Curvularia sp.): 60 to 80%; inhibition at 5 µg/mL (Alternaria alternata; Alternaria alternata, plate medium containing compound at 5 mg/L, read-out: Growth inhibition grade, A.m): > 80%; inhibition at 50 µg/mL (Alternaria alternata; Alternaria alternata, plate medium containing compound at 50 mg/L, read-out: Growth inhibition grade, A.m): > 80%; inhibition at 5 µg/mL (Botritis cinerea; plate medium containing compound at 5 mg/L, read-out: Growth inhibition grade, B.c): 60 to 80%; inhibition at 50 µg/mL (Botritis cinerea; plate medium containing compound at 50 mg/L, read-out: Growth inhibition grade, B.c): > 80%"
C[C@]1(CCl)CC[C@@H](Cc2ccc(-c3ccccc3)cc2)[C@]1(O)Cn1cncn1 (relative stereo) [Compound I-82],5 (% Mycerial growth inhibition of 80% or higher),5 (% Mycerial growth inhibition of 80% or higher),5 (% Mycerial growth inhibition of 80% or higher),5 (% Mycerial growth inhibition of 80% or higher),5 (% Mycerial growth inhibition of 80% or higher),5 (% Mycerial growth inhibition of 80% or higher),5 (% Mycerial growth inhibition of 80% or higher),5 (% Mycerial growth inhibition of 80% or higher),5 (% Mycerial growth inhibition of 80% or higher),5 (% Mycerial growth inhibition of 80% or higher),–
"O[C@]1(Cn2cncn2)[C@H](Cc2ccc(Cl)cc2)CCC1(CCl)CCl (relative stereo) [Compound I-203, cis-5-(4-chlorobenzyl)-2,2-bis(chloromethyl)-1-(1H-1,2,4-triazol-1-yl)methylcyclopentanol]",–,–,–,–,–,–,–,–,–,–,"Growth inhibition grade, U.n (Ustilago nuda; plate medium, 5 mg/L): 5 (% Mycerial growth inhibition of 80% or higher); Growth inhibition grade, U.n (Ustilago nuda; plate medium, 50 mg/L): 5 (% Mycerial growth inhibition of 80% or higher); Growth inhibition grade, F.g (Fusarium graminearum [1]; plate medium, 5 mg/L): 5 (% Mycerial growth inhibition of 80% or higher); Growth inhibition grade, F.g (Fusarium graminearum [1]; plate medium, 50 mg/L): 5 (% Mycerial growth inhibition of 80% or higher); Growth inhibition grade, F.c (Fusarium oxysporum; plate medium, 5 mg/L): 5 (% Mycerial growth inhibition of 80% or higher); Growth inhibition grade, F.c (Fusarium oxysporum; plate medium, 50 mg/L): 5 (% Mycerial growth inhibition of 80% or higher); Growth inhibition grade, A.m (Alternaria alternata; plate medium, 5 mg/L): 5 (% Mycerial growth inhibition of 80% or higher); Growth inhibition grade, A.m (Alternaria alternata; plate medium, 50 mg/L): 5 (% Mycerial growth inhibition of 80% or higher); Growth inhibition grade, B.c (Botritis cinerea; plate medium, 5 mg/L): 5 (% Mycerial growth inhibition of 80% or higher); Growth inhibition grade, B.c (Botritis cinerea; plate medium, 50 mg/L): 5 (% Mycerial growth inhibition of 80% or higher)"
C[C@]1(CCl)CC[C@@H](Cc2ccccc2F)[C@]1(O)Cn1cncn1 (relative stereo) [Compound I-86],5 (% Mycerial growth inhibition of 80% or higher),5 (% Mycerial growth inhibition of 80% or higher),5 (% Mycerial growth inhibition of 80% or higher),5 (% Mycerial growth inhibition of 80% or higher),5 (% Mycerial growth inhibition of 80% or higher),5 (% Mycerial growth inhibition of 80% or higher),4 (% Mycerial growth inhibition of less than 80 to 60% or higher),5 (% Mycerial growth inhibition of 80% or higher),5 (% Mycerial growth inhibition of 80% or higher),5 (% Mycerial growth inhibition of 80% or higher),–
Cc1ccc(C[C@@H]2CC[C@](C)(CCl)[C@@]2(O)Cn2cncn2)cc1 (relative stereo) [Compound I-80],5 (% Mycerial growth inhibition of 80% or higher),5 (% Mycerial growth inhibition of 80% or higher),5 (% Mycerial growth inhibition of 80% or higher),5 (% Mycerial growth inhibition of 80% or higher),5 (% Mycerial growth inhibition of 80% or higher),5 (% Mycerial growth inhibition of 80% or higher),5 (% Mycerial growth inhibition of 80% or higher),5 (% Mycerial growth inhibition of 80% or higher),5 (% Mycerial growth inhibition of 80% or higher),5 (% Mycerial growth inhibition of 80% or higher),–
